Laboratory results reported in patent publication US20240425479A1, “HALO-SUBSTITUTED AMINO AZA-HETEROARYL COMPOUNDS AS INHIBITORS OF THE HAEMATOPOIETIC PROGENITOR KINASE 1 (HPK1)” (priority 2021, published 2024).

Target: T1, Recombinant (1-346) HPK1 (h) (Homo sapiens, UniProt Q92918)
T1 construct: Recombinant (1-346) HPK1 (h) is incubated with 8 mM MOPS pH 7.0
T1 sequence (Q92918 1-346): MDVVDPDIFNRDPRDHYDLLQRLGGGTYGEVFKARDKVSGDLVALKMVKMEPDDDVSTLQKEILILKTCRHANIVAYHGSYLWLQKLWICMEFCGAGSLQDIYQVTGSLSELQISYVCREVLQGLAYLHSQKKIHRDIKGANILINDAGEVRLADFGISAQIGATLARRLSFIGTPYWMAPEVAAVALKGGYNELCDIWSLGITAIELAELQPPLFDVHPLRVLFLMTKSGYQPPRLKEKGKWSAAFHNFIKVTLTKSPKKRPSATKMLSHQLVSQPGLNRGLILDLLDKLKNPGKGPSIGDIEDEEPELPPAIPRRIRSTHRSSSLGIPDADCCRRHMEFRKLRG
Experiment: HPK1 human STE kinase enzymatic radiometric assay
Assay type: biochemical
Settings: read-out: HPK1 IC50 nM Range
In short: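 Recombinant HPK1 (1-346) incubated 40 min at RT with 0.33 mg/mL myelin basic protein and [gamma-33P]-ATP in 8 mM MOPS pH 7.0, 0.2 mM EDTA, 10 mM Mg acetate; reaction started with Mg/ATP. Stopped with 0.5% phosphoric acid, spotted on P30 filtermat, washed, scintillation counted. Compounds tested as 9-point 3-fold dilutions.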

Row | Structure (SMILES) | IC50 [nM]
1 | CO[C@@H]1CCN(Cc2cc(-c3nc(-c4ccc5c(c4)CCNC5=O)c(N)nc3F)ccc2N2CCOCC2)C1 [Example I-151, (R)-6-(3-amino-5-fluoro-6-(3-((3-methoxypyrrolidin-1-yl)methyl)-4-morpholinophenyl)pyrazin-2-yl)-3,4-dihydroisoquinolin-1(2H)-one] | 0.1 to 10
2 | CO[C@@H]1CCN(Cc2cc(-c3nc(-c4cc5c(cc4F)C(=O)NCC5)c(N)nc3F)ccc2N2CCOCC2)C1 [Example I-152, (R)-6-(3-amino-5-fluoro-6-(3-((3-methoxypyrrolidin-1-yl)methyl)-4-morpholinophenyl)pyrazin-2-yl)-7-fluoro-3,4-dihydroisoquinolin-1(2H)-one] | 0.1 to 10
3 | CN(C)Cc1cc(-c2nc(-c3ccc4c(=O)[nH]cc(Cl)c4c3)c(N)nc2F)ccc1N1CCOCC1 [Example I-153, 6-(3-amino-6-(3-((dimethylamino)methyl)-4-morpholinophenyl)-5-fluoropyrazin-2-yl)-4-chloroisoquinolin-1(2H)-one] | 0.1 to 10
4 | CO[C@@H]1CCN(Cc2cc(-c3nc(-c4cc(F)c5c(c4)CCNC5=O)c(N)nc3F)ccc2N2CCOCC2)C1 [Example I-155, (R)-6-(3-amino-5-fluoro-6-(3-((3-methoxypyrrolidin-1-yl)methyl)-4-morpholinophenyl)pyrazin-2-yl)-8-fluoro-3,4-dihydroisoquinolin-1(2H)-one] | 0.1 to 10
5 | CO[C@H]1CCN(Cc2cc(-c3nc(-c4ccc5c(c4)CCNC5=O)c(N)nc3F)ccc2N2CCOCC2)C1 [Example I-156, (S)-6-(3-amino-5-fluoro-6-(3-((3-methoxypyrrolidin-1-yl)methyl)-4-morpholinophenyl)pyrazin-2-yl)-3,4-dihydroisoquinolin-1(2H)-one] | 0.1 to 10
6 | CO[C@H]1CCN(Cc2cc(-c3nc(-c4cc5c(cc4F)C(=O)NCC5)c(N)nc3F)ccc2N2CCOCC2)C1 [Example I-157, (S)-6-(3-amino-5-fluoro-6-(3-((3-methoxypyrrolidin-1-yl)methyl)-4-morpholinophenyl)pyrazin-2-yl)-7-fluoro-3,4-dihydroisoquinolin-1(2H)-one] | 0.1 to 10
7 | CO[C@H]1CCN(Cc2cc(-c3nc(-c4cc(F)c5c(c4)CCNC5=O)c(N)nc3F)ccc2N2CCOCC2)C1 [Example I-158, (S)-6-(3-amino-5-fluoro-6-(3-((3-methoxypyrrolidin-1-yl)methyl)-4-morpholinophenyl)pyrazin-2-yl)-8-fluoro-3,4-dihydroisoquinolin-1(2H)-one] | 0.1 to 10
8 | Cc1cc2cc(-c3nc(-c4ccc(N5CCN(CCCC(F)F)CC5)cc4)c(F)nc3N)cc(F)c2c(=O)[nH]1 [Example I-159, 6-(3-amino-6-(4-(4-(4,4-difluorobutyl)piperazin-1-yl)phenyl)-5-fluoropyrazin-2-yl)-8-fluoro-3-methylisoquinolin-1(2H)-one] | 0.1 to 10
9 | COCCN(C)Cc1cc(-c2nc(-c3ccc4c(c3)CCNC4=O)c(N)nc2F)ccc1N1CCOCC1 [Example I-160, 6-(3-amino-5-fluoro-6-(3-(((2-methoxyethyl)(methyl)amino)methyl)-4-morpholinophenyl)pyrazin-2-yl)-3,4-dihydroisoquinolin-1(2H)-one] | 0.1 to 10
10 | COCCN(C)Cc1cc(-c2nc(-c3cc4c(cc3F)C(=O)NCC4)c(N)nc2F)ccc1N1CCOCC1 [Example I-161, 6-(3-amino-5-fluoro-6-(3-(((2-methoxyethyl)(methyl)amino)methyl)-4-morpholinophenyl)pyrazin-2-yl)-7-fluoro-3,4-dihydroisoquinolin-1(2H)-one] | 0.1 to 10
11 | COCCN(C)Cc1cc(-c2nc(-c3cc(F)c4c(c3)CCNC4=O)c(N)nc2F)ccc1N1CCOCC1 [Example I-162, 6-(3-amino-5-fluoro-6-(3-(((2-methoxyethyl)(methyl)amino)methyl)-4-morpholinophenyl)pyrazin-2-yl)-8-fluoro-3,4-dihydroisoquinolin-1(2H)-one] | 0.1 to 10
12 | CCN(C)Cc1cc(-c2nc(-c3ccc4c(c3)CCNC4=O)c(N)nc2F)ccc1C1CCOCC1 [Example I-163, 6-(3-amino-6-(3-((ethyl(methyl)amino)methyl)-4-(tetrahydro-2H-pyran-4-yl)phenyl)-5-fluoropyrazin-2-yl)-3,4-dihydroisoquinolin-1(2H)-one] | 0.1 to 10
13 | Cc1c[nH]c(=O)c2c(F)cc(-c3nc(-c4ccc(N5CCN(C(C)C)CC5)cc4)c(F)nc3N)cc12 [Example I-166, 6-(3-amino-5-fluoro-6-(4-(4-isopropylpiperazin-1-yl)phenyl)pyrazin-2-yl)-8-fluoro-4-methylisoquinolin-1(2H)-one] | 0.1 to 10
14 | Cc1c[nH]c(=O)c2c(F)cc(-c3nc(-c4ccc(C5CCOCC5)c(CN(C)C)c4)c(F)nc3N)cc12 [Example I-167, 6-(3-amino-6-(3-((dimethylamino)methyl)-4-(tetrahydro-2H-pyran-4-yl)phenyl)-5-fluoropyrazin-2-yl)-8-fluoro-4-methylisoquinolin-1(2H)-one] | 0.1 to 10
15 | Cc1[nH]c(=O)c2cc(F)c(-c3nc(-c4ccc(N5CCN(C(C)C)CC5)cc4)c(F)nc3N)cc2c1F [Example I-168, 6-(3-amino-5-fluoro-6-(4-(4-isopropylpiperazin-1-yl)phenyl)pyrazin-2-yl)-4,7-difluoro-3-methylisoquinolin-1(2H)-one] | 0.1 to 10
16 | Nc1nc(F)c(-c2ccc(C3CCOCC3)c(CN3CCC3)c2)nc1-c1ccc2c(c1)CCNC2=O [Example I-169, 6-(3-amino-6-(3-(azetidin-1-ylmethyl)-4-(tetrahydro-2H-pyran-4-yl)phenyl)-5-fluoropyrazin-2-yl)-3,4-dihydroisoquinolin-1(2H)-one] | 0.1 to 10
17 | COCCN(C)Cc1cc(-c2nc(-c3ccc4c(c3)CCNC4=O)c(N)nc2F)ccc1C1CCOCC1 [Example I-174, 6-(3-amino-5-fluoro-6-(3-(((2-methoxyethyl)(methyl)amino)methyl)-4-(tetrahydro-2H-pyran-4-yl)phenyl)pyrazin-2-yl)-3,4-dihydroisoquinolin-1(2H)-one] | 0.1 to 10
18 | COCCN(C)Cc1cc(-c2nc(-c3cc4c(cc3F)C(=O)NCC4)c(N)nc2F)ccc1C1CCOCC1 [Example I-175, 6-(3-amino-5-fluoro-6-(3-(((2-methoxyethyl)(methyl)amino)methyl)-4-(tetrahydro-2H-pyran-4-yl)phenyl)pyrazin-2-yl)-7-fluoro-3,4-dihydroisoquinolin-1(2H)-one] | 0.1 to 10
19 | COCCN(C)Cc1cc(-c2nc(-c3cc(F)c4c(c3)CCNC4=O)c(N)nc2F)ccc1C1CCOCC1 [Example I-176, 6-(3-amino-5-fluoro-6-(3-(((2-methoxyethyl)(methyl)amino)methyl)-4-(tetrahydro-2H-pyran-4-yl)phenyl)pyrazin-2-yl)-8-fluoro-3,4-dihydroisoquinolin-1(2H)-one] | 0.1 to 10
20 | C[C@@H]1CN(c2ccc(-c3nc(-c4cc(F)c5c(c4)CCNC5=O)c(N)nc3F)cc2CN(C)C)CCO1 [Example I-177, (R)-6-(3-amino-6-(3-((dimethylamino)methyl)-4-(2-methylmorpholino)phenyl)-5-fluoropyrazin-2-yl)-8-fluoro-3,4-dihydroisoquinolin-1(2H)-one] | 0.1 to 10
21 | CN(C)Cc1cc(-c2nc(-c3ccc4c(c3)CCNC4=O)c(N)nc2F)ccc1OCC1CCOCC1 [Example I-178, 6-(3-amino-6-(3-((dimethylamino)methyl)-4-((tetrahydro-2H-pyran-4-yl)methoxy)phenyl)-5-fluoropyrazin-2-yl)-3,4-dihydroisoquinolin-1(2H)-one] | 0.1 to 10
22 | CN(C)Cc1cc(-c2nc(-c3cc4c(cc3F)C(=O)NCC4)c(N)nc2F)ccc1OCC1CCOCC1 [Example I-179, 6-(3-amino-6-(3-((dimethylamino)methyl)-4-((tetrahydro-2H-pyran-4-yl)methoxy)phenyl)-5-fluoropyrazin-2-yl)-7-fluoro-3,4-dihydroisoquinolin-1(2H)-one] | 0.1 to 10
23 | CN(C)Cc1cc(-c2nc(-c3cc(F)c4c(c3)CCNC4=O)c(N)nc2F)ccc1OCC1CCOCC1 [Example I-180, 6-(3-amino-6-(3-((dimethylamino)methyl)-4-((tetrahydro-2H-pyran-4-yl)methoxy)phenyl)-5-fluoropyrazin-2-yl)-8-fluoro-3,4-dihydroisoquinolin-1(2H)-one] | 0.1 to 10
24 | Cc1c[nH]c(=O)c2ccc(-c3nc(-c4ccc(C5CCOCC5)cc4)c(F)nc3N)cc12 [Example I-181, 6-(3-amino-5-fluoro-6-(4-(tetrahydro-2H-pyran-4-yl)phenyl)pyrazin-2-yl)-4-methylisoquinolin-1(2H)-one] | 0.1 to 10
25 | Cc1cc2cc(-c3nc(-c4ccc(N5CCN(C(C)C)CC5)cc4)c(F)nc3N)c(F)cc2c(=O)[nH]1 [Example I-182, 6-(3-amino-5-fluoro-6-(4-(4-isopropylpiperazin-1-yl)phenyl)pyrazin-2-yl)-7-fluoro-3-methylisoquinolin-1(2H)-one] | 0.1 to 10
26 | Cc1cc2cc(-c3nc(-c4ccc(N5CCOCC5)c(CN(C)C)c4)c(F)nc3N)c(F)cc2c(=O)[nH]1 [Example I-183, 6-(3-amino-6-(3-((dimethylamino)methyl)-4-morpholinophenyl)-5-fluoropyrazin-2-yl)-7-fluoro-3-methylisoquinolin-1(2H)-one] | 0.1 to 10
